Patent publication US11932874B2, “Method for culturing mesenchymal stem cells using gamma-irradiated serum” (R Bio CO., Ltd., priority 2018, dated 2024)

What was measured:
Assay type in all cases: cell-based
[1] = test system: human adipose tissue-derived stem cells; test: Adhesion of stem cells cultured in 25 kGy gamma-irradiated FBS: time at which stem cell density reached 90% (Example 4); conditions: 25 kGy FBS, passage 0 cells
Method: In the same manner as described in Example 3 above, fetal bovine serum (FBS) was irradiated with 25 kGy of gamma radiation, thereby preparing gamma-irradiated FBS. Vitamin C (ascorbic acid; L-Ascorbic Acid 2-phosphate) was added to the FBS which was then irradiated with 25 kGy of gamma irradiation, thereby preparing gamma-irradiated FBS pretreated with vitamin C. The vitamin C was added to the FBS at a concentration of 1%. Then, the human adipose tissue-derived stem cells at passage 0, isolated in Example 1, were thawed and inoculated into T25 flasks at a concentration of 1.7×10^3 cells/T25 flask, and the inoculated cells were cultured with AMSC+ culture medium (R-Bio Co., Ltd.) containing the prepared gamma-irradiated FBS or gamma-irradiated FBS pretreated with vitamin C at a concentration of 5% in a CO2 incubator at 37° C. for 2 days. After 2 days of culture, the medium was removed and replaced with AMSC+ culture medium containing 5% gamma-irradiated FBS (a negative control group), medium obtained by adding vitamin C to AMSC+ culture medium containing 5% gamma-irradiated FBS (a vitamin C post-treatment test group), or AMSC+ culture medium containing 5% gamma-irradiated FBS pretreated with vitamin C (a vitamin C pre-treatment test group). Vitamin C was added to the culture medium or FBS at a concentration of 1%. A positive control group was also prepared as described in Examples 2 and 3 above. For each control group and the test group, examination was performed of the time at which the density of the stem cells reached 90% so that these cells could be sub-cultured.

[2] = test system: human adipose tissue-derived stem cells; test: Culture of stem cells in AMSC+ medium with 25 kGy gamma-irradiated FBS and vitamin C post-treatment (Example 2): cell number, doubling time; conditions: for Cell No. / Doubling time: Ad-MSC (P4)
Method: Fetal bovine serum (FBS) was irradiated with 25 kGy of gamma radiation (Soyagreentec Co., Ltd.), thereby preparing gamma-irradiated FBS. Then, the human adipose tissue-derived stem cells at passage 3, isolated in Example 1, were thawed and inoculated into T75 flasks at a concentration of 0.5×10^6 cells/T75 flask, and the inoculated cells were cultured with AMSC+ culture medium (R-Bio Co., Ltd.) containing the prepared gamma-irradiated FBS at a concentration of 5% in a CO2 incubator at 37° C. for 2 days. After 2 days of culture, the medium was removed and replaced with either AMSC+ culture medium containing 5% gamma-irradiated FBS (a negative control group) or medium obtained by adding vitamin C (ascorbic acid; L-Ascorbic Acid 2-phosphate) to AMSC+ culture medium containing 5% gamma-irradiated FBS (a vitamin C post-treatment test group). Vitamin C was added to the culture medium at concentrations of 0.025, 0.05, 0.1 and 1%. The AMSC+ culture medium (R-Bio Co., Ltd.) is a 1:1 mixture of KSFM-P medium (containing Defined Keratinocyte-SFM, 0.2 mM L-ascorbic acid 2-phosphate, 5 μg/ml insulin, 2 mM N-acetyl-L-cysteine, 0.09 mM calcium chloride, 74 ng/ml hydrocortisone and 5% FBS) and DMEM medium. After 4 days of culture, the cell proliferation rate and doubling time of the cells were examined. The viability of the cells was examined with a microscope and a hemocytometer, and the doubling time was calculated using the following equation: Doubling Time=duration×log(2)/log(final concentration)−log(initial concentration). [Equation 1] A positive control group was cultured using 5% normal FBS (which was not irradiated with gamma radiation) and AMSC+ culture medium in the same manner as the negative control group and the test group.

[3] = test system: human adipose tissue-derived stem cells; test: Viability of stem cells cultured in 30 kGy gamma-irradiated FBS (Example 5): cell number, size, viability, doubling time; conditions: 30 kGy FBS, 4 days; for Cell No. / Cell size / DT / Viability: average (n = 3)
Method: Fetal bovine serum (FBS) was irradiated with 30 kGy of gamma radiation, thereby preparing gamma-irradiated FBS. Vitamin C (ascorbic acid; L-Ascorbic Acid 2-phosphate) was added to the FBS which was then irradiated with 30 kGy of gamma irradiation, thereby preparing gamma-irradiated FBS pretreated with vitamin C. The vitamin C was added to the FBS at a concentration of 1%. Then, the human adipose tissue-derived stem cells at passage 3, isolated in Example 1, were thawed and inoculated into T75 flasks at a concentration of 0.5×10^6 cells/T75 flask, and the inoculated cells were cultured with AMSC+ culture medium (R-Bio Co., Ltd.) containing the prepared gamma-irradiated FBS or gamma-irradiated FBS pretreated with vitamin C at a concentration of 5% in a CO2 incubator at 37° C. for 2 days. After 2 days of culture, the medium was removed and replaced with AMSC+ culture medium containing 5% gamma-irradiated FBS (a negative control group), medium obtained by adding vitamin C to AMSC+ culture medium containing 5% gamma-irradiated FBS (a vitamin C post-treatment test group), or medium obtained by adding vitamin C to AMSC+ culture medium containing 5% gamma-irradiated FBS pretreated with vitamin C (a vitamin C pre- and post-treatment test group) (Table 4). Vitamin C was added to the culture medium or FBS at a concentration of 1%. After 4 days of culture (FIG. 6), the cell proliferation rate, cell number, viability and doubling time of the stem cells were examined. A positive control group was also prepared as described in Example 2 above. [table]

[4] = 25 KGy FBS + 0.025% AA2P added to medium, 4 days of culture
[5] = 25 KGy FBS + 0.05% AA2P added to medium, 4 days of culture
[6] = 25 KGy FBS + 0.1% AA2P added to medium, 4 days of culture
[7] = 25 KGy FBS + 1% AA2P added to medium, 4 days of culture
[8] = vitamin C post-treatment, 25 kGy FBS, 4 days of culture
[9] = 1% Vit. C pre-treatment + 1% Vit. C post-treatment

O=C1O[C@H]([C@@H](O)CO)C(O)=C1OP(=O)(O)O [AA2P, L-Ascorbic Acid 2-phosphate]
Density (90%): day of culture on which stem cell density reached 90% ([1]; Post-treatment with 1% Vit. C): Day 10 | Density (90%): day of culture on which stem cell density reached 90% ([1]; Post-treatment with 1% Vit. C, listed as vitamin C): 13 days | Density (90%): day of culture on which stem cell density reached 90% ([1]; Pre-treatment with 1% Vit. C): Day 13 | Density (90%): day of culture on which stem cell density reached 90% ([1]; Pre-treatment with 1% Vit. C, listed as vitamin C): 10 days | Cell No. [2, 4]: 10.035 ×10^6 cells | Doubling time [2, 4]: 31.33 h | Cell No. [2, 5]: 9.5 ×10^6 cells | Doubling time [2, 5]: 32.16 h | Cell No. [2, 6]: 10.6 ×10^6 cells | Doubling time [2, 6]: 30.54 h | Cell No. [2, 7]: 12 ×10^6 cells | Doubling time [2, 7]: 28.9 h | cell number versus negative control group [2, 8]: increased compared to the negative control group | doubling time versus negative control group [2, 8]: decreased compared to the negative control group | microscope observation of stem cells ([2]; vitamin C post-treatment, 25 kGy FBS, days 0, 1 and 4 (FIG. 1)): levels similar to those of the positive control group | Cell No. ([3]; 1% Vit. C post-treatment): 4.3 ×10^6 cells | Cell size ([3]; 1% Vit. C post-treatment): 19.3 μm | DT ([3]; 1% Vit. C post-treatment): 29.9 h | Viability ([3]; 1% Vit. C post-treatment): 86.9% | Cell No. [3, 9]: 5.7 ×10^6 cells | Cell size [3, 9]: 20.3 μm | DT [3, 9]: 28.1 h | Viability [3, 9]: 86.5% | Cell No. ([3]; 1% Vit. C pre-treatment): 5.8 ×10^6 cells | Cell size ([3]; 1% Vit. C pre-treatment): 18.8 μm | DT ([3]; 1% Vit. C pre-treatment): 27.6 h | Viability ([3]; 1% Vit. C pre-treatment): 92.3% | cell number, viability and doubling time versus positive control group ([3]; vitamin C post-treatment test group): increased to the levels of the positive control group
